Experimental data reported in patent US8298522B1, “Methods of modulating MUC1 expression to inhibit inflammation” (priority 2005, dated 2012).

Legend:
[1] = system: MUC1 transcription; assay: Trypsin-induced MUC1 transcription compared with NE; type: cell-based
[2] = system: MUC1; assay: Degradation of MUC1 in spent medium aliquots by NE (ELISA); type: biochemical, human; conditions: spent medium of A549 cells, 100 nM NE, 24 hr
Experimental: To verify the ability of NE to degrade MUC1, aliquots of a spent medium sample containing MUC1 molecules were incubated for 24 hr in the presence of NE and the amounts of MUC1 measured by ELISA.

[3] = system: MUC1 mRNA; assay: Effect of NE on MUC1 mRNA expression and stability in A549 cells (real time RT-PCR); type: cell-based, human
Experimental: Referring now to FIG. 11. […] MUC1 mRNA levels were measured by real time RT-PCR and normalized to GAPDH mRNA levels. Each data point represents the mean±SEM (n=3).
Effect of NE on MUC1 mRNA expression. A549 cells were seeded in DMEM plus 10% FBS in 24-well plates at 5.0×10^4 cells/well, cultured to confluence for 24 hr at 37° C., and treated for 24 hr with various concentrations of NE (0, 10, 25, 50, 100, or 150 nM) or vehicle control. […] At the end of each chase period, the cells were washed with PBS and MUC1 transcripts quantified by real time RT-PCR.
Real time RT-PCR. Total RNA was isolated using RNeasy (Qiagen, Valencia, Calif.) and 2.0 μg was reverse transcribed using the iScript cDNA Synthesis kit (BioRad, Hercules, Calif.) in a total volume of 20 μl. Real time PCR was carried out using the Taqman probes and iQ™ Supermix (BioRad) according to the manufacturer's instructions. Briefly, 2.0 μl of cDNA or control plasmid was used as template for amplification in the iCycler (BioRad) with 200 nM of MUC1 or GAPDH (internal control) primers and probes. […] The CT value was defined as the number of PCR cycles required for the specific fluorescence signal to exceed the detection threshold value set by the software installed in the iCycler. […] The levels of MUC1 and GAPDH mRNAs were calculated from the standard curves and the expression of MUC1 transcripts was normalized to GAPDH transcripts.

[4] = system: Sp1 binding to the −99/−90 segment of the MUC1 promoter; assay: EMSA of Sp1 binding to the MUC1 promoter segment; parameters: species or system human; conditions: A549 nuclear extracts, 100 nM NE 0-120 min
Experimental: Referring now to FIG. 16, NE enhances the binding of Sp1 to the −99/−90 segment in the MUC1 promoter. Confluent A549 cells were treated with vehicle control (A) or 100 nM NE (B) for 0, 10, 20, 30, 60, or 120 min. Cells were lysed and nuclear extracts were incubated with or without 100-fold molar excess of unlabeled probe, poly(dIdC) as a non-specific competitor, or Sp1 antibody for 30 min on ice, and then incubated with a [γ-^32P]-labeled oligonucleotide corresponding to the human MUC1 promoter between nucleotides −104 and −83. DNA-protein complexes were resolved on 4.5% polyacrylamide gels and analyzed by autoradiography.
Electrophoretic mobility shift assay (EMSA). Confluent A549 cells were treated with 100 nM NE for 0, 10, 20, 30, 60, or 120 min. Following treatment, nuclear extracts were prepared as previously described (31). […]
Protein concentrations were measured by the procedure of Bradford (8). […] The DNA-protein complexes were resolved on 4.5% polyacrylamide gels and analyzed by autoradiography as described in Lee et al. 2004, Differential expression of mu-opioid receptor gene in CXBK and B6 mice by Sp1, Mol Pharmacol 66: 1580-1584.

[5] = system: MUC1 promoter; assay: MUC1 promoter-luciferase reporter assay in A549 cells; conditions: MUC1-pGL2b-transfected A549 cells, 100 nM NE, 24 hr
[6] = system: MUC1 protein in A549 cells
Experimental: Confluent A549 cells were incubated in the presence or absence of 5.0 μg/ml of actinomycin (AcD) or 10 μg/ml of cycloheximide (Chx) for 1 hr and either non-treated or treated for 24 hr with 100 nM of NE. MUC1 protein levels in cell lysates (A) and spent media (B) were measured by ELISA. Each bar represents the mean±SEM (n=3). […] (C) Aliquots of spent media obtained from confluent A549 cells were non-treated (0 hr) or treated for 24 hr with 100 nM NE or vehicle control and MUC1 levels in the spent media determined by ELISA. Each bar represents the mean±SEM (n=3).
A549 cells were seeded at 5.0×10^4 cells/well in 24-well plates in Dulbecco's Modified Eagle Medium (DMEM) containing 10% fetal bovine serum (FBS), 100 U/ml penicillin, and 100 μg/ml streptomycin (all from Invitrogen, Carlsbad, Calif.) and incubated at 37° C. in a humidified CO2 incubator. Confluent monolayers were washed with serum-free DMEM and treated with 100 nM (2.6 U/ml) NE or vehicle control (PBS) for 24 hr. In some experiments, the cells were pretreated for 1 hr with 5.0 μg/ml of actinomycin D or 10 μg/ml of cycloheximide prior to NE treatment. Following treatment, cell-conditioned media were collected, and the cells were washed with PBS and lysed with 500 μl/well of PBS containing 1.0% Triton X-100, 1.0% sodium deoxycholate, 1.0% protease inhibitor cocktail, and 2.0 mM phenylmethylsulfonyl fluoride (PMSF). Lysates and conditioned media were incubated for 20 min at 80° C. to inactivate residual NE, insoluble material removed by centrifugation at 14,000×g for 10 min at 4° C., and protein concentrations measured by the procedure of Bradford using bovine serum albumin as standard.
ELISA. A549 cell lysates or cell-conditioned culture media were centrifuged at 10,000×g for 10 min at 4° C., added in triplicate to 96-well ELISA plates (MaxiSorb™, Nalge Nunc, Rochester, N.Y.), and incubated overnight at 4° C. Wells were blocked for 1 hr at room temperature (about 22° C.) with PBS, pH 7.0, containing 10 mg/ml BSA and 50 mg/ml sucrose and washed with PBS containing 0.05% Tween 20 (PBS-T). The samples were reacted for 2 hr at room temperature with 200 μg/ml of primary MUC1 antibody (GP1.4), washed with PBS-T, reacted for 2 hr at room temperature with 200 μg/ml of secondary antibody (peroxidase-conjugated goat antimouse IgG) (KPL, Gaithersburg, Md.), and washed with PBS-T. Bound antibodies were detected with tetramethylbenzidine substrate (SureBlue™, KPL), the substrate reaction stopped with 1 N HCl, and absorbencies at 450 nm measured using a microplate spectrophotometer (Dexall, Gaithersburg, Md.).

Substance	activity in inducing MUC1 transcription relative to that of NE [1]	MUC1 remaining in spent medium aliquots after incubation with NE [2]	effect on MUC1 mRNA stability ([3]; 100 nM NE 24 hr, chase with 5.0 μg/ml actinomycin D 0-24 hr)	MUC1 mRNA levels with increasing doses and time ([3]; NE 0-150 nM, real time RT-PCR)	time of maximum Sp1 binding to the MUC1 promoter segment in the presence of NE [4] [min]	MUC1 promoter luciferase activity compared with vehicle control [5]	MUC1 in spent media compared with the control group ([6]; A549 cells, 100 nM NE 24 hr, with or without AcD or Chx pretreatment) [%]	increase of MUC1 levels in cell lysates compared with 24 hr control ([6]; confluent A549 cells, 100 nM NE, 24 hr) [%]
Trypsin	less than 10%							
neutrophil elastase		no detectable amounts of MUC1	does not alter MUC1 mRNA stability	progressively higher MUC1 mRNA levels	60	significantly higher luciferase activity	45	33
